Results from ChEMBL document CHEMBL5678809, “Preclinical characterization of GLPG0634, a selective inhibitor of JAK1, for the treatment of inflammatory diseases” (J Immunol, 2013).
Activity calls are given as the source filed them. The calls are words filed in the database; no cut-off is given here.

What was measured:
BaF3 = test: Antiproliferative activity against mouse BaF3 cells assessed as IL-3-induced inhibition of cell growth incubated for 40 hrs; format: functional, cell-based; conditions: BaF3, 40 h
[1] = molecular target: Protein-tyrosine kinase 6 (Homo sapiens) (UniProt Q13882); test: Inhibition of BRK (unknown origin) at 1 uM relative to control
[2] = molecular target: Calcium/calmodulin-dependent protein kinase type 1 (Homo sapiens) (UniProt Q14012); test: Inhibition of CaMK1 (unknown origin) at 1 uM relative to control
[3] = molecular target: CDK7/Cyclin H/MNAT1 (Homo sapiens) (UniProt P51946+P50613+P51948); test: Inhibition of CDK7/cyclinH/MAT1 (unknown origin) at 1 uM relative to control; format: protein-complex assay
[4] = molecular target: Tyrosine-protein kinase CSK (Homo sapiens) (UniProt P41240); test: Inhibition of CSK (unknown origin) at 1 uM relative to control
[5] = molecular target: Proto-oncogene tyrosine-protein kinase Src (Homo sapiens) (UniProt P12931); test: Inhibition of SRC (unknown origin) at 1 uM relative to control
[6] = molecular target: Epidermal growth factor receptor (Homo sapiens) (UniProt P00533); test: Inhibition of EGFR (unknown origin) at 1 uM relative to control
[7] = molecular target: Receptor tyrosine-protein kinase erbB-4 (Homo sapiens) (UniProt Q15303); test: Inhibition of ErbB4 (unknown origin) at 1 uM relative to control
[8] = molecular target: Vascular endothelial growth factor receptor 3 (Homo sapiens, UniProt P35916); test: Inhibition of Flt4 (unknown origin)
[9] = molecular target: Macrophage colony-stimulating factor 1 receptor (Homo sapiens, UniProt P07333); test: Inhibition of FMS (unknown origin)
[10] = molecular target: LIM domain kinase 1 (Homo sapiens) (UniProt P53667); test: Inhibition of LIMK1 (unknown origin) at 1 uM relative to control
[11] = molecular target: Serine/threonine-protein kinase STK11 (Homo sapiens) (UniProt Q15831); test: Inhibition of LKB1 (unknown origin) at 1 uM relative to control
[12] = molecular target: Mitogen-activated protein kinase kinase kinase 3 (Homo sapiens, UniProt Q99759); test: Inhibition of MAP3K3 (unknown origin)
[13] = molecular target: MAP kinase-activated protein kinase 2 (Homo sapiens) (UniProt P49137); test: Inhibition of MAPK2 (unknown origin) at 1 uM relative to control
[14] = molecular target: Dual specificity mitogen-activated protein kinase kinase 1 (Homo sapiens) (UniProt Q02750); test: Inhibition of MEK1 (unknown origin) at 1 uM relative to control
[15] = molecular target: Hepatocyte growth factor receptor (Homo sapiens) (UniProt P08581); test: Inhibition of Met (unknown origin) at 1 uM relative to control
Misshapen-like kinase 1 = Misshapen-like kinase 1 (Homo sapiens, UniProt Q8N4C8); test: Inhibition of MINK (unknown origin)
[16] = molecular target: SRSF protein kinase 3 (Homo sapiens) (UniProt Q9UPE1); test: Inhibition of MSSK1 (unknown origin) at 1 uM relative to control
[17] = molecular target: Serine/threonine-protein kinase Nek11 (Homo sapiens) (UniProt Q8NG66); test: Inhibition of NEK11 (unknown origin) at 1 uM relative to control
[18] = molecular target: Serine/threonine-protein kinase Nek2 (Homo sapiens) (UniProt P51955); test: Inhibition of NEK2 (unknown origin) at 1 uM relative to control
[19] = molecular target: Serine/threonine-protein kinase Nek6 (Homo sapiens) (UniProt Q9HC98); test: Inhibition of NEK6 (unknown origin) at 1 uM relative to control
[20] = molecular target: Ribosomal protein S6 kinase beta-2 (Homo sapiens) (UniProt Q9UBS0); test: Inhibition of p70S6K2 (unknown origin) at 1 uM relative to control
[21] = molecular target: Serine/threonine-protein kinase MARK2 (Homo sapiens) (UniProt Q7KZI7); test: Inhibition of PAR-1B (unknown origin) at 1 uM relative to control
[22] = molecular target: Serine/threonine-protein kinase D2 (Homo sapiens) (UniProt Q9BZL6); test: Inhibition of PKD2 (unknown origin) at 1 uM relative to control
[23] = molecular target: cGMP-dependent protein kinase 1 (Homo sapiens) (UniProt Q13976); test: Inhibition of PKG1 (unknown origin) at 1 uM relative to control
[24] = molecular target: Rho-associated protein kinase 1 (Homo sapiens, UniProt Q13464); test: Inhibition of ROCK1 (unknown origin)
[25] = molecular target: Mitogen-activated protein kinase 11 (Homo sapiens) (UniProt Q15759); test: Inhibition of SAPK2b (unknown origin) at 1 uM relative to control
[26] = molecular target: Mitogen-activated protein kinase 13 (Homo sapiens) (UniProt O15264); test: Inhibition of SAPK4 (unknown origin) at 1 uM relative to control
[27] = molecular target: Mitogen-activated protein kinase kinase kinase 7 (Homo sapiens, UniProt O43318); test: Inhibition of TAK1 (unknown origin)
[28] = molecular target: Serine/threonine-protein kinase VRK2 (Homo sapiens) (UniProt Q86Y07); test: Inhibition of VRK2 (unknown origin) at 1 uM relative to control
RPMI-8226 = test: Inhibition of human […] cell differentiation assessed as effect on IL-4 mRNA expression by RT-PCR analysis; format: functional, cell-based; conditions: dose 0.1-10 µM
[29] = Cmax in Sprague-Dawley rat at 1 mg/kg, iv measured upto 8 hrs by LC-MS analysis; format: ADME, organism-based; conditions: in vivo
[30] = Volume of distribution at steady state in Sprague-Dawley rat at 1 mg/kg, iv measured upto 8 hrs by LC-MS analysis; format: ADME, organism-based; conditions: in vivo, read-out: Vdss
[31] = Half life in Sprague-Dawley rat at 5 mg/kg, po measured upto 24 hrs by LC-MS analysis; format: ADME, organism-based; conditions: in vivo
[32] = Oral bioavailability in Sprague-Dawley rat at 5 mg/kg measured upto 24 hrs by LC-MS analysis; format: ADME, organism-based; conditions: in vivo
Rattus norvegicus [33] = test: In vivo inhibition of JAK1 in Sprague-Dawley rat assessed as reduction in MX2 mRNA level at 1 to 10 mg/kg, po measured for 24 hrs by RT-PCR analysis; format: functional, organism-based; conditions: dose 1-10 mg/kg
Rattus norvegicus [34] = test: Antiarthritic activity against collagen-induced arthritis Dark Agouti rat model assessed as reduction in bone degradation by measuring larsen score administered 3 times a week and measured on day 7 by X-ray analysis; format: functional, organism-based; conditions: dose 3.0 mg/kg, time 7.0 day
Mus musculus [35] = test: Antiarthritic activity against collagen-induced arthritis DBA/1J mouse model assessed as reduction in RANKL expression at 50 mg/kg, po measured for 4 hrs; format: functional, organism-based
Mus musculus [36] = test: Antiarthritic activity against collagen-induced arthritis DBA/1J mouse model assessed as MCP-5 level in serum at 50 mg/kg, po measured for 4 hrs by luminex analysis (reference value: 62.8 +/- 12.4 ng/ml); format: functional
Mus musculus [37] = test: Antiarthritic activity against collagen-induced arthritis DBA/1J mouse model assessed as reduction in MX2 level in whole blood at 50 mg/kg, po measured for 2 weeks by luminex analysis; format: functional, organism-based

Sequence of Serine/threonine-protein kinase Nek2 (Homo sapiens) (P51955 whole entry): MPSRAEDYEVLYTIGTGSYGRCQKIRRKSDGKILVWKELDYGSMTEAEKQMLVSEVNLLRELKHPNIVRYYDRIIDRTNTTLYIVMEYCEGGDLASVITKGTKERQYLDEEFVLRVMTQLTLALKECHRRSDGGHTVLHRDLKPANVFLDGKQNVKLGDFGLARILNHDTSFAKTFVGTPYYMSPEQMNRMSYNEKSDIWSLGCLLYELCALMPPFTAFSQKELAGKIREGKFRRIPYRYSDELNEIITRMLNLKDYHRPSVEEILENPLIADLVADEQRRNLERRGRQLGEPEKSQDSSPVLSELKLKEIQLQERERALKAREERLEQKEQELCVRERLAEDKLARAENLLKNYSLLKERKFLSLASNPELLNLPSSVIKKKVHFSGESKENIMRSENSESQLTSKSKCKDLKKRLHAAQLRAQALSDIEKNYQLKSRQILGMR
Sequence of Misshapen-like kinase 1 (Q8N4C8 whole entry): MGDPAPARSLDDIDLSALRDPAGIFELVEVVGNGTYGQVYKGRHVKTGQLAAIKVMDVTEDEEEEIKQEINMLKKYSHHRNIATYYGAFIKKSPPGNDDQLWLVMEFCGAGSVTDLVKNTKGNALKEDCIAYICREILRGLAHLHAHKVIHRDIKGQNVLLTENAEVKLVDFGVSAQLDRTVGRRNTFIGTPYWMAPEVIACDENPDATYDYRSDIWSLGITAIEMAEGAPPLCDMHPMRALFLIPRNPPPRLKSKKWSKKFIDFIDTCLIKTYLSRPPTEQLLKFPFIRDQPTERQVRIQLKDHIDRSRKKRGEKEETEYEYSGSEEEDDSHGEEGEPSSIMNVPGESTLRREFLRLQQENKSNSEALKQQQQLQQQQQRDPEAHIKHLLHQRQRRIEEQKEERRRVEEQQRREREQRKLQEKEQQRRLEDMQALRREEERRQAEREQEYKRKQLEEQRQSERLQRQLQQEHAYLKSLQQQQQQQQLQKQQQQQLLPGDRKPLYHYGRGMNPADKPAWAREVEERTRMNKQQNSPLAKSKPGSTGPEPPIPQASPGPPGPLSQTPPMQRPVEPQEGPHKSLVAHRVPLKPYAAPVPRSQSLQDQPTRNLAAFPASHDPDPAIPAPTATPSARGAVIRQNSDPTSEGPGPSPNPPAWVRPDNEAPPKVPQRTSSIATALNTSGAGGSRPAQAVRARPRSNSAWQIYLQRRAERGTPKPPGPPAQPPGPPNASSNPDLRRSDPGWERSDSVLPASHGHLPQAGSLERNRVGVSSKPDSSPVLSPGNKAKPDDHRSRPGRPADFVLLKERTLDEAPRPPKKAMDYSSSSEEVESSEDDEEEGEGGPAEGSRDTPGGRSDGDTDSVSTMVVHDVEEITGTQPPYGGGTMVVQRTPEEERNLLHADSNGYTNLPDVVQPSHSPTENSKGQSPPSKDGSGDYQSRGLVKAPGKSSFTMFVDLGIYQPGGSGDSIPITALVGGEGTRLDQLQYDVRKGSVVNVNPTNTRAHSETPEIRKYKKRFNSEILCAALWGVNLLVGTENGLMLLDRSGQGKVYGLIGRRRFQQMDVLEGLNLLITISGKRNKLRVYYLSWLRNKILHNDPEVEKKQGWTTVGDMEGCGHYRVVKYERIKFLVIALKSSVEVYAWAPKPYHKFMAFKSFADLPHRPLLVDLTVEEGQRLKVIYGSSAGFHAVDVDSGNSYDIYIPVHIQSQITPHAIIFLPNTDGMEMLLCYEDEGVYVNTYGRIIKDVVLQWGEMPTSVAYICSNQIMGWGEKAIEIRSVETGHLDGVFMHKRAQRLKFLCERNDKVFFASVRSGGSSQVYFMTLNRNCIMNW
Sequence of Mitogen-activated protein kinase 11 (Homo sapiens) (Q15759 whole entry): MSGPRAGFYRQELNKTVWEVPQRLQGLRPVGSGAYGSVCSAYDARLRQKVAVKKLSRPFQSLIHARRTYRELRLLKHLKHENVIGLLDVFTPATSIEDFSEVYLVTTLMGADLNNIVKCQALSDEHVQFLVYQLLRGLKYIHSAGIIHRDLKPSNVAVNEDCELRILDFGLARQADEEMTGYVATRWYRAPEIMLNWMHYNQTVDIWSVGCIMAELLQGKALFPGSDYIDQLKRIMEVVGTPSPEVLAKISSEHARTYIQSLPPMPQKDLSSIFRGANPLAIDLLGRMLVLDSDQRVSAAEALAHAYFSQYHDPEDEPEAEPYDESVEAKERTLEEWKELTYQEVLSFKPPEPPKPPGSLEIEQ
Sequence of Calcium/calmodulin-dependent protein kinase type 1 (Homo sapiens) (Q14012 whole entry, looked up): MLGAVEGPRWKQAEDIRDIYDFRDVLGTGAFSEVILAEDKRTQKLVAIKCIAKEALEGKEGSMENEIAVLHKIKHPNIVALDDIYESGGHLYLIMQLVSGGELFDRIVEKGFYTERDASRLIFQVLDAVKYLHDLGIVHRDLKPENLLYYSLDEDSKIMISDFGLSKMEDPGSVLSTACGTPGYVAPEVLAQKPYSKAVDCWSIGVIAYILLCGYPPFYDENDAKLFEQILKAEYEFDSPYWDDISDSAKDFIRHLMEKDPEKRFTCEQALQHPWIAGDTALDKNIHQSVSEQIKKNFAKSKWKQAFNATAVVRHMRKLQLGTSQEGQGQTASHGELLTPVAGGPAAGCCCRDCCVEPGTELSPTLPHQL
Sequence of Protein-tyrosine kinase 6 (Homo sapiens) (Q13882 whole entry, looked up): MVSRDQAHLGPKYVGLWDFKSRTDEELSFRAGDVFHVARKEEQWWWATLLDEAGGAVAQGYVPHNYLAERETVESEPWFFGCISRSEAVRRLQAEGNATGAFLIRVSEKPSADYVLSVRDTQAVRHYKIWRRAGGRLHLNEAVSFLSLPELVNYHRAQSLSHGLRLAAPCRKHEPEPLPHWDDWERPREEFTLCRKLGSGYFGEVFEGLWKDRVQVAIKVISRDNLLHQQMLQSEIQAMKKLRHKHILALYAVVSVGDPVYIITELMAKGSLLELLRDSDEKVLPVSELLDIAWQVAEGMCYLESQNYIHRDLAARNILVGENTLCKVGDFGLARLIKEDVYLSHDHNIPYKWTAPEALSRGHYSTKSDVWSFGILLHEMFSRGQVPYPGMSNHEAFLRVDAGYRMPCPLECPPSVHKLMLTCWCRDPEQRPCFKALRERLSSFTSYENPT
Sequence of cGMP-dependent protein kinase 1 (Homo sapiens) (Q13976 whole entry): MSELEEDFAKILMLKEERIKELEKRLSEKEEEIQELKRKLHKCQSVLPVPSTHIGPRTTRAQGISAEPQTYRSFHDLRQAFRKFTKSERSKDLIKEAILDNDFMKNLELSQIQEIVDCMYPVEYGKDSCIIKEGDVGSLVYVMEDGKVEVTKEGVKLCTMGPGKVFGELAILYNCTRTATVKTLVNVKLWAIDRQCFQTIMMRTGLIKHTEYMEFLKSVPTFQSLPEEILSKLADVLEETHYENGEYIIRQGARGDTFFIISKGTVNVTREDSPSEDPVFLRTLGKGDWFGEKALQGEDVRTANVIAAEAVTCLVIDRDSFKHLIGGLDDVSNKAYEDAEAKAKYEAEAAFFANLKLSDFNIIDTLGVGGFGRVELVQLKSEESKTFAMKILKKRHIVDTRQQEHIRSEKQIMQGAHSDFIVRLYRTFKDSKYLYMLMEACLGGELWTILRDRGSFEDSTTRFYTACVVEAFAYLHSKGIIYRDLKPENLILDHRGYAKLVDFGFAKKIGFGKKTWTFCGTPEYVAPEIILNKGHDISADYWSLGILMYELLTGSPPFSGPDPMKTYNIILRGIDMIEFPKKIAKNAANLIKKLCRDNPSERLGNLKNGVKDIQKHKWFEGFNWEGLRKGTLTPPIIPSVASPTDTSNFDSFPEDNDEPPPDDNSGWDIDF
Sequence of Ribosomal protein S6 kinase beta-2 (Homo sapiens) (Q9UBS0 whole entry): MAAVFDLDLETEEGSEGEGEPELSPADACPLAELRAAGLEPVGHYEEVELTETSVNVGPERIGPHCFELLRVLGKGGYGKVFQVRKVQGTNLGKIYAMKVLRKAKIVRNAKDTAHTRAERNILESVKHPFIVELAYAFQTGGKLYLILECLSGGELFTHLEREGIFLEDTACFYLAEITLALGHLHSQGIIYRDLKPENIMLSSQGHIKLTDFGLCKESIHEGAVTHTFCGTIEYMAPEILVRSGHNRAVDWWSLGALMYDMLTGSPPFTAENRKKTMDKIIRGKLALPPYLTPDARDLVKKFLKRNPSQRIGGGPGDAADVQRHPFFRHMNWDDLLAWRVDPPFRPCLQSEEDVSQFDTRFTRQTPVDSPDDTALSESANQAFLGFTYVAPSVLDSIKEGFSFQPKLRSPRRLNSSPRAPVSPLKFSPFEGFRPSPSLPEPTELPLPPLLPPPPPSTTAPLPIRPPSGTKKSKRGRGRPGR
Sequence of Mitogen-activated protein kinase kinase kinase 3 (Q99759 whole entry): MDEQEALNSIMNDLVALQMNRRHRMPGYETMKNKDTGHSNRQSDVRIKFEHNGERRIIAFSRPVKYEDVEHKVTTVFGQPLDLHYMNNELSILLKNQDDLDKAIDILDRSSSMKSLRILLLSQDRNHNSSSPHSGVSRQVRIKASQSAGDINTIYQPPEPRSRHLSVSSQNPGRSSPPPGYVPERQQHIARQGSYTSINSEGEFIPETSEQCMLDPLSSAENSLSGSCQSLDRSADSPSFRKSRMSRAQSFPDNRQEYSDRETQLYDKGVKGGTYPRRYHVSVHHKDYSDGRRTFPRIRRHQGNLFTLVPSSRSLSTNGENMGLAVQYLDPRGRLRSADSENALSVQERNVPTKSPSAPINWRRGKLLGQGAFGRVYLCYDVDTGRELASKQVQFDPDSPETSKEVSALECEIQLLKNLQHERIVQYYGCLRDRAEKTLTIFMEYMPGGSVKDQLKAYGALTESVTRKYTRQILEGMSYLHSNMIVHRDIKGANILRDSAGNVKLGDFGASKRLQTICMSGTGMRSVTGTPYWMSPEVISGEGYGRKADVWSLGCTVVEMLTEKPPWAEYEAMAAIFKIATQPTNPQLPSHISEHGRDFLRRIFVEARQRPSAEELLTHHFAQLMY

SMILES: O=C(Nc1nc2cccc(-c3ccc(CN4CCS(=O)(=O)CC4)cc3)n2n1)C1CC1 [FILGOTINIB]
- IC50 (BaF3; read-out: IC50): 4.55 µM
- IC50 (BaF3; read-out: pIC50 (converted)): 4.57 µM
- inhibition [1]: -2%
- inhibition [2]: -4%
- inhibition [3]: 12%
- inhibition [4]: 3%
- inhibition [5]: -10%
- inhibition [6]: -5%
- inhibition [7]: -5%
- IC50 [8]: 0.274 µM
- IC50 [9]: 0.489 µM
- inhibition [10]: -1%
- inhibition [11]: -5%
- IC50 [12]: > 10 µM
- inhibition [13]: 0%
- inhibition [14]: -3%
- inhibition [15]: -3%
- IC50 (Misshapen-like kinase 1): > 10 µM
- inhibition [16]: 2%
- inhibition [17]: -2%
- inhibition [18]: -10%
- inhibition [19]: -4%
- inhibition [20]: -6%
- inhibition [21]: -7%
- inhibition [22]: -10%
- inhibition [23]: -1%
- IC50 [24]: > 10 µM
- inhibition [25]: -4%
- inhibition [26]: -10%
- IC50 [27]: > 10 µM
- inhibition [28]: 2%
- inhibition (RPMI-8226): Dose-Dependent Effect
- Cmax [29]: 1.41 µg/mL
- Vd [30]: 1.8 L/kg
- half-life [31]: 3.9 h
- bioavailability [32]: 45%
- inhibition (Rattus norvegicus [33]): Active
- Activity (Rattus norvegicus [34]): Dose-Dependent Effect
- Activity (Mus musculus [35]): Active
- Activity (Mus musculus [36]): 36.4 ng/mL
- Activity (Mus musculus [37]): inactive
